Results on 1 molecule are retold here after patent US7265139B2, “RXR activating molecules” (Incyte San Diego Inc., priority 2001, dated 2007).

Each structure is given as a SMILES string. Some results are limits rather than exact numbers.

One data set relates to BALB/c mice. Kind of data set: Effect on serum triglyceride levels in wild type BALB/c mice. To be noted: FIG. 13, p≦0.01. The format is in vivo, mouse. On the procedure:
The animals were treated with a single daily oral dose of the test compound suspended in sesame oil (dose volume of 5 ml/kg). […], Animas treated with 10 and 30 mg/kg of Compound 1, which are doses that are 30 and 100 times the efficacious does in diabetic db/db mice, respectively, caused no increase in serum triglyceride levels compared to vehicle treated control animals.
Test compounds are tested in wild type mice at 10-100 times the efficacious dose in diabetic mice. Typically, adult male BALB/c mice are housed in a fixed 12—12-hr artificial light-dark cycle, and maintained on a standard rodent diet. The animals are treated with a single daily oral dose of the test compound suspended in sesame oil (dose volume of 5 ml/kg) as also described in the examples. Approximately two weeks later the animals are bled from the tail vein, then necropsied following sacrifice by carbon dioxide asphyxiation. Several serum biochemical parameters are measured. Of special significance is the effect the selected compounds have on serum triglyceride levels compared to vehicle treated control animals.
For these studies, adult male BALB/c mice were housed in a fixed 12—12-hr artificial light-dark cycle, and maintained on a standard rodent diet. The animals were treated with a single daily oral dose of the test compound suspended in sesame oil (dose volume of 5 ml/kg).

The subject of another data set is KKA^y mice. Kind of data set: Antidiabetic activity in type 2 diabetic KKA^y mice. In kind it is in vivo, mouse. On the procedure:
Prior to commencing treatment, all of the animals are bled from the tail vein and serum levels of glucose and triglyceride are measured in duplicate. The animals are then sorted into different treatment groups with equal average triglyceride levels. The animals are treated with a single daily oral dose of the test compound suspended in sesame oil (dose volume of 3 ml/kg).
In short, adult diabetic KKA^y mice are housed in a fixed 12—12-hr artificial light-dark cycle, and maintained on a standard rodent diet. Prior to commencing treatment, all of the animals are bled from the tail vein and serum levels of glucose and triglyceride are measured in duplicate. The animals are then sorted into different treatment groups with equal average triglyceride levels. The animals are treated with a single daily oral dose ranging from 3-30 mg/kg of the test compound suspended in sesame oil (dose volume of 3-5 ml/kg). Following one week of treatment the animals are bled from the tail vein and Serum glucose and triglycerides are measured in duplicate.
In this example, compound 1, which belongs to the novel subclass of RXR ligands is compared to a typical RXR ligand like compound 2 in the treatment of KKA^y mice.
For this study, adult diabetic KKA^y mice were housed in a fixed 12—12-hr artificial light-dark cycle, and maintained on a standard rodent diet. Prior to commencing treatment, all of the animals are bled from the tail vein and serum levels of glucose and triglyceride are measured in duplicate. The animals are then sorted into different treatment groups with equal average triglyceride levels. The animals are treated with a single daily oral dose of the test compound suspended in sesame oil (dose volume of 3 ml/kg).

Data set [1] has as its system Mouse 3T3-L1 preadipocytes. Kind of data set: 3T3-L1 adipocyte differentiation assay. The format is cell-based. To be noted: 0.1 μM compared to Compound 1 at equal concentration; pre-adipocytes to adipocytes. On the procedure:
Mouse 3T3-L1 cells were grown in 96-well tissue culture plates containing growing medium (DME containing 10% calf serum (CS) plus glutamine-pen-strep) at a density of 3,000 cells/well. Two days after reaching confluence, cells are treated with the different compounds in DM (Day 0). Compound 1 is included in all the experiments, and its ability to differentiate 3T3-L1 cells at 0.1 μM is taken as reference for 100% differentiation. After 7 days the lipid content of the cells was determined.
Prior to testing compounds in vivo, they can be run through the in vitro adipocyte differentiation assay based on the protocol of Zhang, et al. (1996) Negative Regulation of Peroxisome Proliferator—Activated Receptor—γGene Expression Contributes to the Antiadipogenic effects of Tumor Necrosis Factor—α. Mol. Endo. 10:1457-1456, incorporated herein by reference. In short, mouse 3T3-L1 preadipocytes are grown in culture medium containing 10% calf serum supplemented with antibiotics. Two days after reaching confluence, cells are treated with the selected compound at different concentrations dissolved in medium containing 10% fetal calf serum supplemented with antibiotics and kept at 10% CO2. The test compounds are replaced every 2-3 days. Differentiation is assessed after 7 days of treatment by the lipid content in the cells, using the Triglyceride (INFINITY) reagent (Sigma Chemical, St. Louis, Mo.).
The ability of a compound to induce preadipocytes to differentiate into adipocytes is an indicator of its antidiabetic activity. This allows for screening many compounds in a simple in vitro assay, thus avoiding the task of testing all compounds in vivo. The adipocyte differentiation assay is based on the protocol of Zhang, et al. (1996) Negative Regulation of Peroxisome Proliferator-Activated Receptor-γ Gene Expression Contributes to the Antiadipogenic effects of Tumor Necrosis Factor—α. Mol. Endo. 10:1457-1456, incorporated herein by reference at least for material related to adipocyte differentiation assays. Mouse 3T3-L1 preadipocytes are grown in culture medium containing 10% calf serum supplemented with antibiotics. Two days after reaching confluence, cells are treated with the selected compound at different concentrations dissolved in medium containing 10% fetal calf serum supplemented with antibiotics and kept at 10% CO2. The test compounds are replaced every 2-3 days. Differentiation is assessed after 7 days of treatment by the lipid content in the cells, using the Triglyceride (INFINITY) reagent (Sigma Chemical, St. Louis, Mo.) (see FIG. 15).

Another data set concerns db/db mice. To be noted: at the concentrations used in the KKA^y study; cited from earlier work.
Where [2] appears, read: following two weeks of treatment.

Regarding `C=C(c1ccc(C(=O)O)cc1)c1cc2c(cc1C)C(C)(C)CCC2(C)C` [Compound 2, reference compound], the “serum triglyceride levels compared to vehicle treated control animals” value in the data set on BALB/c mice (50 and 100 mg/kg, daily oral, statistically significant at 100 mg/kg) is “increase”. For the same molecule, the “serum triglyceride levels compared to vehicle treated controls” value with BALB/c mice (similar excess over its effective glucose lowering dose in db/db mice) is “statistically significant, dose dependent increase”. Further, in the data set with KKA^y mice (5 and 15 mg/kg, single daily oral dose in sesame oil, FIG. 10), the “serum glucose levels compared to vehicle treated controls” value is “no difference”. For the same molecule, the “serum triglyceride levels compared to vehicle treated controls” value with KKA^y mice (5 and 15 mg/kg, single daily oral dose, FIG. 11, statistically significant at 5 mg/kg) is recorded as “increase”. Also, in the data set on KKA^y mice (efficacious = lowers glucose without increasing triglycerides), the “Efficacious in KKAy Mice” value was “No”. In the data set on KKA^y mice (setting [2]), the “glucose levels compared to vehicle treated controls” value is listed as “failed to decrease” and the “triglyceride levels compared to vehicle treated controls” value is given as “significantly increased”. Besides, the “Differentiation Activity” value in data set [1] was more than 100%. In addition, in the data set on db/db mice, the “glucose levels in type 2 diabetic db/db mice” value is on record as “lower” and the “triglyceride levels in type 2 diabetic db/db mice” value was “lower”.
